# Data taken from patent publication US4350705A, “Cyclohexane derivatives, process for preparation thereof and medicines containing these cyclohexane derivatives” (Eisai Co., Ltd., priority 1979, dated 1982).
# Where two headings read alike, the source gives them in different places.
# Assays:
# [1] = test system: spontaneous hypertensive rats (SHR); test: Hypotensive Action: systolic pressure from tail artery of SHR after oral administration 10 mg/Kg once a day for 2 days; assay type: in vivo, rat; conditions: oral 10 mg/Kg, * = significant vs control, P = 0.01
# [2] = test system: spontaneous hypertensive rats (SHR); test: as above; assay type: in vivo, rat; conditions: oral 10 mg/Kg, * = significant vs control, P = 0.01; remark: listed apart in the source
# Procedure: A test compound suspended in a gum arabic solution was orally administered once a day, at a dose of 10 mg/Kg (body weight), for 2 days, to groups of spontaneous hypertensive rats (hereinafter referred to as "SHR") (about 30 weeks old; systolic pressure=about 230 mm Hg), each group consisting of 6 rats.
# The systolic pressure was measured from the tail artery of SHR under no anesthesia before the administration and 6 hours after the time of administration by using a continuous tonometer (Shimazu Tonometer Model SCS-301 manufactured by Shimazu Seisakusho K.K.). An aqueous solution of gum arabic alone was administered to the rats of the control group.
# [3] = Acute Toxicity: LD50 in rats of the SD series, 14 days observation; assay type: in vivo; conditions: rat, in vivo, male
# Text: (§1) Groups of rats of the SD series (body weight=160-280 g; about 8 weeks old), each group consisting of 5 rats, were used. After administration of the test compound, the death or survival was examined during a period of 14 days to determine the LD50 value.
# [4] = test system: rats of the SD series; test: as above; assay type: in vivo; conditions: female
# Text: as §1
# [5] = ip, abdominal administration, read-out: LD50, Abdominal Administration, male
# [6] = oral, read-out: LD50, Oral Administration, male
SMILES,"Blood Pressure (mm Hg) on Second Day, after 24 hours [1] [mm Hg]","Blood Pressure (mm Hg) on First Day, after 6 hours [2] [mm Hg]","Blood Pressure (mm Hg) on Second Day, after 6 hours [2] [mm Hg]","Blood Pressure (mm Hg) on Second Day, before administration [2] [mm Hg]","LD50 at 336 h [3, 5] [mg/kg]","LD50 at 336 h [3, 6] [mg/kg]","LD50, Abdominal Administration, female [4]","LD50, Oral Administration, female [4]"
O=C(Cc1ccccc1)C1C(=O)CC(c2ccccc2)CC1=O (stereo not drawn) [drawing 31],193 ± 7,183 ± 3,183 ± 3,203 ± 3,,,,
COc1ccc(CCC(=O)C2C(=O)CC(c3ccccc3)CC2=O)cc1 (stereo not drawn),212 ± 6,209 ± 5,210 ± 5,213 ± 6,,,,
O=C(CCc1ccc2c(c1)OCO2)C1C(=O)CC(c2ccccc2)CC1=O (stereo not drawn) [drawing 20],207 ± 7,205 ± 7,204 ± 6,218 ± 7,,,,
COc1ccccc1C1CC(=O)C(C(=O)CCc2ccc3c(c2)OCO3)C(=O)C1 (stereo not drawn),220 ± 6,210 ± 5,205 ± 5,220 ± 6,,,,
O=C(Cc1ccc(Cl)cc1)C1C(=O)CC(c2ccccc2)CC1=O (stereo not drawn),222 ± 4,215 ± 1,215 ± 2,217 ± 4,,,,
Cc1ccc(C2CC(=O)C(C(=O)CCc3ccc4c(c3)OCO4)C(=O)C2)cc1 (stereo not drawn) [drawing 21],192 ± 5,198 ± 5,188 ± 5,200 ± 10,,,,
CC1(C)Oc2ccc(CCC(=O)C3C(=O)CC(c4ccccc4)CC3=O)cc2O1 (stereo not drawn),192 ± 7,207 ± 3,190 ± 5,202 ± 7,,,,
COc1ccc(C2CC(=O)C(C(=O)CCc3ccc(O)c(O)c3)C(=O)C2)cc1 (stereo not drawn),228 ± 2,212 ± 3,220 ± 1,225 ± 1,,,,
O=C(CCc1ccc2c(c1)OC(c1ccccc1)(c1ccccc1)O2)C1C(=O)CC(c2ccccc2)CC1=O (stereo not drawn),208 ± 5,202 ± 5,192 ± 5,210 ± 10,,,,
O=C(CCc1ccc(O)c(O)c1)C1C(=O)CC(c2ccccc2)CC1=O (stereo not drawn),205 ± 5,204 ± 5,200 ± 5,209 ± 5,,,,
O=C(CCc1ccc2c(c1)OCO2)C1C(=O)CC(c2ccccc2)CC1=O (stereo not drawn) [drawing 33],,,,,> 500,> 4000,> 500,> 4000
O=C(Cc1ccccc1)C1C(=O)CC(c2ccccc2)CC1=O (stereo not drawn) [drawing 35],,,,,> 500,> 4000,> 500,> 4000
Cc1ccc(C2CC(=O)C(C(=O)CCc3ccc4c(c3)OCO4)C(=O)C2)cc1 (stereo not drawn) [drawing 34],,,,,> 500,> 4000,> 500,> 4000
O=C(CCc1ccccc1Cl)C1C(=O)CC(c2ccccc2)CC1=O (stereo not drawn),193 ± 1,200 ± 3,213 ± 4,208 ± 9,,,,
CC(=O)Oc1ccc(CCC(=O)C2C(=O)CC(c3ccccc3)CC2=O)cc1OC(C)=O (stereo not drawn),212 ± 5,195 ± 10,195 ± 10,222± 5,,,,
